Patent publication US11674140B2, “Compositions and methods for treating facioscapulohumeral dystrophy” (THE CHILDREN'S MEDICAL CENTER CORPORATION, priority 2017, dated 2023)
“Also recorded” adds a separate entry of the source.

What was measured:
[1] = test system: FSHD biomarkers MBDL3L3, TRIM42 and ZSCAN4; assay: Quantitative real-time PCR of FSHD biomarkers in patient myotubes; assay type: cell-based, human
Experimental: One common way to test potential therapies for FSHD is to measure a reduction in FSHD biomarker genes (FIG. 16B). […] Briefly, patient primary myoblasts (17A and 16A) were placed in differentiation media. At day four, drug compounds were added, and myotubes were harvested 24 hours later. RNA extraction and cDNA synthesis was performed. Quantitative real-time PCR for FSHD biomarkers levels of MBDL3L3, TRIM42 and ZSCAN4 was performed. Results indicated a significant reduction in biomarker levels for the majority of drugs tested.

[2] = test system: DUX4 toxicity; assay: Caspase 3/7 activity assay (luciferase read-out) of DUX4-induced cell death; assay type: cell-based, human
Text: FIGS. 14A and 14B illustrate a method for assaying cell death. FIG. 14A is a schematic diagram showing a method for assaying cell death by measuring Caspase 3/7 activity using a luciferase read-out.
FIG. 14B presents graphical data generated from the doxycycline-inducible assay.
The DUX4 gene encodes a transcription factor whose expression is rare, but extremely toxic. DUX4 transcription factor controls more than 100 early developmental genes. Misexpression of DUX4 is hypothesized to induce inappropriate expression of downstream genes to cause disease pathogenesis. […] Non-manifesting carriers of FSHD alleles who are found to express DUX4, point to the existence of genetic modifiers that may act to suppress DUX4 toxicity. The clinical, histopathological and molecular evidence for asymptomatic/non-manifesting carriers of FSHD is provided at FIGS. 1A-1F. As reported herein below, a genome-wide CRISPR loss-of-function library was used to identify genes that modulate DUX4 induced toxicity and act as genetic modifiers of FSHD (FIG. 1M). This powerful resource has enabled the assessment of the impact of all loss-of-function gene edits across the entire genome. This approach permitted the isolation of genes that influence survivability of DUX4 toxicity. These genes were validated in vitro by generation of individual knock-out lines, using a Caspase-3/7 assay to quantify reduced DUX4-induced apoptosis, and using inhibitor compounds to mimic gene knock-outs. These genes are also being evaluated in vivo.
The abundance of sgRNAs in each of the LOF cell lines was measured (FIG. 12). Each sgRNA is specific to the gene. Single gene knock-outs were generated using a lenti-CRISPR plasmid. […] To determine whether the results observed with Hif1a knockout could be recapitulated using an inhibitor of Hif1a, experiments with small compound inhibitors were carried out (FIGS. 15A, 15B, 16C, 16D). […] Herbimycin A is a benzoquinone drug (used for anti-cancer treatment) that binds and inhibits heat shock protein 90 (HSP90) chaperone (tyrosine kinase inhibitor) and is known to deplete dephosphorylated HIF1a. […]

[3] = test system: DUX4 inducible cell line; assay: Cell death assay: caspase fluorescence (FITC) in DUX4 inducible cell line after doxycycline; assay type: cell-based; conditions: after 48 hours of doxycycline treatment
Experimental: FIG. 17A includes a series of micrographs. Fluorescence from labeled caspase is visible (fluorescein isothiocynate (FITC)) in a DUX4 inducible cell line after 48 hours of doxy cy cline treatment.
Cell death assay were then used to validate single knock-outs cell lines (FIGS. 17A-17C).

[4] = test system: DUX4-injected zebrafish; assay: DUX4-injected zebrafish model of FSHD; assay type: in vivo; conditions: drug 24 hr post-injection; day 7; compared to DUX4-injected no drug control group
Text: FSHD has proven to be a difficult disease to model in animals given the primate-specific origins of DUX4, its sporadic activation and mosaic expression, as well as the complex epigenetic components associated with the disease. Our published DUX4 zebrafish model was the first to recapitulate the muscle-eye-ear combination of phenotypes described in human FSHD (FIGS. 1N-A, 1N-B, 1N-C). […] These established DUX4 models of FSHD provide for functional follow-up experiments for candidate genes identified in CRISPR screens.
Drugs that show efficacy in vitro can be tested in a zebrafish model of FSHD. […] After injecting DUX4 into zebrafish, the test subjects were then treated with the four drug compounds 24 hr post-injection. Injected fish were categorized into affected or unaffected groups based on whole-body phenotype (FIG. 18A).

Row | Compound | FSHD biomarker levels (MBDL3L3, TRIM42, ZSCAN4) ([1]; patient primary myoblasts 16A and 17A, drug added at day four of differentiation, harvested 24 hours later) | suppression of DUX4 toxicity ([2]; 20 uM) | efficacy in vitro measured by caspase 3/7 activity [2] | caspase fluorescence [3] | efficacy in patient cell lines [1] | percentage of affected fish (whole-body phenotype) [4]
1 | COC(=O)c1ccc(O)c(NC(=O)COc2ccc(C34CC5CC(CC(C5)C3)C4)cc2)c1 [Hif1a inhibitor] | Dose-response reduction of biomarkers | – | – | – | – | –
2 | CO[C@H]1[C@@H](OC)C[C@H](C)[C@@H](OC)C2=CC(=O)C=C(NC(=O)/C(C)=C/C=C\[C@H](OC)[C@@H](OC(N)=O)/C(C)=C/[C@@H]1C)C2=O [Herbimycin A] | – | good suppression of DUX4 toxicity | showed efficacy in vitro | reduced caspase fluorescence | efficacy | significantly reduced; also recorded: significantly decreased percentage of affected fish
3 | O=c1cc(N2CCOCC2)oc2c(-c3ccccc3)cccc12 [LY294002, Ly294002] | – | – | showed efficacy in vitro | reduced caspase fluorescence | efficacy | –
